Consider 3 compounds from publication PMC5218823, “Acute effects of ethanol on GABAA and glycine currents in the lateral habenula neurons of young rats” (Open journal of neuroscience, 2013).

Broadly, the IC50 is the concentration that inhibits the measured activity by half. Usually EC50 stands for the midpoint of the concentration-response curve.

Experiment [1] has as its system T1, GABAA receptors (GABAARs) of lateral habenula neurons.
T1 construct: gene Gabra1
The conditions noted are these: 10 μM GABA, co-applied; VH -60 mV; pH 7.4; 22-24 °C; voltage-independent; extrapolated beyond tested 10.8-43.2 mM.

The test system of experiment [2] is T2, glycine receptors (GlyRs) of lateral habenula neurons.
T2 construct: gene Glra1
As to conditions: 30 μM glycine; VH -60 mV; pH 7.4; 22-24 °C; positive modulator.

The test system is the same in experiment [3]. As to conditions: VH -60 mV; pH 7.4; 22-24 °C; agonist.
For experiment [4] the test system is unchanged. As to the kind of experiment: whole-cell patch clamp, inhibition of glycine current. It counts as cell-based, Rattus norvegicus. As to conditions: 500 μM glycine, co-applied; VH -60 mV; pH 7.4; 22-24 °C; antagonist. For orientation: The patch-clamp technique gives a direct electrical read-out from membranes.

On to `CCO` [ethanol], for which, in experiment [1], the IC50 is 94100 ± 29100 µM. Besides, the “% of control at 43.2 mM” value in experiment [2] turned out to be 148 ± 14%. `NCC(=O)O` [glycine] registered an EC50 in experiment [3] of 83.3 µM.

With `O=C1C[C@@H]2OCC=C3CN4CC[C@]56c7ccccc7N1[C@H]5[C@H]2[C@H]3C[C@H]46` [strychnine], the IC50 in experiment [4] turned out to be 0.22 µM.
